For one assay, the target named is human CB2 receptor (Homo sapiens (Human), UniProt P34972). The assay can be described thus: Radioligand binding assay, [3H]-CP-55,940, HEK cell membranes expressing human CNR2. As to the method:
(§1) Radioligand Binding Assay
(§2) The affinity of the compounds of the invention for cannabinoid receptors was determined using recommended amounts of membrane preparations (PerkinElmer) of human embryonic kidney (HEK) cells expressing the human CNR1 or CNR2 receptors in conjunction with 1.5 or 2.6 nM [3H]-CP-55,940 (Perkin Elmer) as radioligand, respectively. Binding was performed in binding buffer (50 mM Tris, 5 mM MgCl2, 2.5 mM EDTA, and 0.5% (wt/vol) fatty acid free BSA, pH 7.4 for CB1 receptor and 50 mM Tris, 5 mM MgCl2, 2.5 mM EGTA, and 0.1% (wt/vol) fatty acid free BSA, pH 7.4 for CB2 receptor) in a total volume of 0.2 mL for 1 h at 30° C. shaking. The reaction was terminated by rapid filtration through microfiltration plates coated with 0.5% polyethylenimine (UniFilter GF/B filter plate; Packard). Bound radioactivity was analyzed for Ki using nonlinear regression analysis (Activity Base, ID Business Solution, Limited), with the Kd values for [^3H]CP55,940 determined from saturation experiments.

The target of a further assay is human CB1 receptor (Homo sapiens (Human), UniProt P21554). Description: Radioligand binding assay, [3H]-CP-55,940, HEK cell membranes expressing human CNR1. As to the method:
as §1, §2

[1] abbreviates: membranes of HEK cells expressing human CNR2, 2.6 nM [3H]-CP-55,940, 1 h at 30° C., read-out: human CB2 Ki.
Where [2] appears, read: membranes of HEK cells expressing human CNR1, 1.5 nM [3H]-CP-55,940, 1 h at 30° C., read-out: human CB1 Ki.

Like-named read-outs stand apart in the source and are kept apart here.

Sequence of human CB1 receptor (P21554 whole entry): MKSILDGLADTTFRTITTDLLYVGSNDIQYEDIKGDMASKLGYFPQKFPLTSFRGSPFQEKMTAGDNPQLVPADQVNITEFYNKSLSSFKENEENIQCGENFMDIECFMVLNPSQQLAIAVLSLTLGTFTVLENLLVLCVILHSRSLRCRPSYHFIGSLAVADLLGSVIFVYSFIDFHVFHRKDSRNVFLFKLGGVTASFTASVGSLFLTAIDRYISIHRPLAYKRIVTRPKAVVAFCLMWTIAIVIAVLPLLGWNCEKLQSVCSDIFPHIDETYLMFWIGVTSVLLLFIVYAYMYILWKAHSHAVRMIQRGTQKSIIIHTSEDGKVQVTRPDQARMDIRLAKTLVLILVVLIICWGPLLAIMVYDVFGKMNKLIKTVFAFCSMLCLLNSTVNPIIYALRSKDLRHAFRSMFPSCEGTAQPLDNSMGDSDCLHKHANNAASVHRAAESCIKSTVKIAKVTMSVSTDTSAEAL
Sequence of human CB2 receptor (P34972 whole entry): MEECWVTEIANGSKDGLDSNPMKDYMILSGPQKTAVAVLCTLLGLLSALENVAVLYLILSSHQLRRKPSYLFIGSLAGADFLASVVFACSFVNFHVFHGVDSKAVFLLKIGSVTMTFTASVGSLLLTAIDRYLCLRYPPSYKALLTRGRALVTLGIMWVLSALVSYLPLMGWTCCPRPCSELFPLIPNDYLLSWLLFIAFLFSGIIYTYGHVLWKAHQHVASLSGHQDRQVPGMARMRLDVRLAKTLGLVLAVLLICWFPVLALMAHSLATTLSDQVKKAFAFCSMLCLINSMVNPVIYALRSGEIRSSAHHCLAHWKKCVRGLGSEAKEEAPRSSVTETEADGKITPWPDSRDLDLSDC

Broadly, the Ki is a measure of affinity in units of concentration, obtained from inhibition or displacement. For `CC(C)(C)c1nc(N2CCC(F)(F)C2)c2nn(Cc3ccccc3CN=C=S)nc2n1` [Example 6, 5-tert-Butyl-7-(3,3-difluoropyrrolidin-1-yl)-2-{[2-(isothiocyanatomethyl)phenyl]methyl}-2H-[1,2,3]triazolo[4,5-d]pyrimidine], the inhibition constant (Ki) turned out to be 211 nM on human CB2 receptor (setting [1]) and 4880 nM at human CB1 receptor (setting [2]).
Turning to `CC(C)(C)c1nc(N2CCC(F)(F)C2)c2nn(Cc3ccccc3S(=O)(=O)F)nc2n1` [Example 5, 2-{[5-tert-Butyl-7-(3,3-difluoropyrrolidin-1-yl)-2H-[1,2,3]triazolo[4,5-d]pyrimidin-2-yl]methyl}benzene-1-sulfonyl fluoride], the Ki on human CB2 receptor was 361 nM; at human CB1 receptor, over 10000 nM.
As for `CC(C)(C)c1nc(N2CCC(F)(F)C2)c2nn(Cc3ccccc3CS(=O)(=O)F)nc2n1` [Example 2, (2-{[5-tert-Butyl-7-(3,3-difluoropyrrolidin-1-yl)-2H-[1,2,3]triazolo[4,5-d]pyrimidin-2-yl]methyl}phenyl)methanesulfonyl fluoride], the values for the Ki at human CB2 receptor and on human CB1 receptor were 637 nM and over 10000 nM, respectively.
Taken in the same sequence, the figures for `CC(C)(C)c1nc(N2CC[C@H](O)C2)c2nn(Cc3ccccc3S(=O)(=O)F)nc2n1` [Example 1, 2-({5-tert-Butyl-7-[(3S)-3-hydroxypyrrolidin-1-yl]-2H-[1,2,3]triazolo[4,5-d]pyrimidin-2-yl}methyl)benzene-1-sulfonyl fluoride] were 1160 nM and over 10000 nM.
With `CC(C)(C)c1nc(N2CCC(F)(F)C2)c2nn(Cc3ccccc3N=C=S)nc2n1` [Example 4, 5-tert-Butyl-7-(3,3-difluoropyrrolidin-1-yl)-2-[(2-isothiocyanatophenyl)methyl]-2H-[1,2,3]triazolo[4,5-d]pyrimidine], the figures for the Ki on human CB2 receptor (setting [1]) and at human CB1 receptor (setting [2]) were 453 nM and over 10000 nM, respectively.
The like results for `CC(C)(C)c1nc(N2CC[C@H](O)C2)c2nn(Cc3ccccc3CN=C=S)nc2n1` [Example 3, (3S)-1-(5-tert-Butyl-2-{[2-(isothiocyanatomethyl)phenyl]methyl}-2H-[1,2,3]triazolo[4,5-d]pyrimidin-7-yl)pyrrolidin-3-ol] were, in that order, 529 nM and over 10000 nM.
Regarding `C#Cc1cccc(S(=O)(=O)F)c1Cn1nc2nc(C(C)(C)C)nc(N3CCC(F)(F)C3)c2n1` [Example 7, 2-[[5-tert-Butyl-7-(3,3-difluoropyrrolidin-1-yl)triazolo[4,5-d]pyrimidin-2-yl]methyl]-3-ethynylbenzenesulfonyl fluoride], the figures for the Ki at human CB2 receptor and on human CB1 receptor were 421 nM and over 10000 nM, respectively.
